Experimental data published in US20080171737A1 (Wyeth, priority 2006, published 2008).
Counter-ions that a name gives are not always drawn.

Target: T1, human hNET (Homo sapiens, UniProt P23975)
T1 construct: expressed in transfected cells; host or cells: MDCK-Net6 (MDCK cells stably transfected with hNET)
Experiment: Functional norepinephrine reuptake assay, Procedure B (6,000 cells/well)
Format: cell-based
Conditions: not given
Description: For screening, 25 μl aliquots of compound solution at a 1 μM or 10 μM final concentration was delivered directly to cells.
For IC50 determinations, stock compounds were prepared at 10 mM from powder. The stock solution was diluted according to compound testing range. […] On the day of assay, 25 μl of compound solution at the specified concentrations were added to the plates containing cells. A DMSO stock of desipramine was prepared at 10 mM in DMSO and diluted for a final concentration of 20 μM to determine the non-specific reuptake.
MDCK-Net6 cells, stably transfected with human hNET (Pacholczyk, 1991), were maintained in growth media [high glucose DMEM (Gibco Cat. 11995), 10% FBS (dialyzed, heat-inactivated, Sigma, dialysed, heat inactivated, Lot# K0922 or equivalent) 1xPen/Strep, and 500 μg/ml G418 (Gibco Cat. 10131)]. Cells were plated at 300,000/T75 flask and cells split twice weekly.
Cells were plated at 50,000 cells/well (Procedure A) or 6,000 cells/well (Procedure B) on day 1 in BD Falcon Microtest 96-well sterile cell culture plates, Optilux White/Clear Bottom TC plate (VWR; # 62406-466 or equivalent) in growth media and maintained in a cell incubator (37° C., 5% CO2). On Day 2, cells were removed from the cell incubator and the growth media is replaced by 200 μl of assay buffer (25 mm HEPES 120 mM NaCL; 5 mM KCl; 2.5 mM CaCl2; 1.2 mM MgSO4; 2 mg/ml glucose (pH 7.4, 37° C.)) containing 0.2 mg/ml ascorbic acid and 1 μM parglyine. For screening, 25 μl of compound in 4% DMSO was added directly to each well and the plate was incubated for 5 minutes (37° C.). […] The reaction is aspirated from the plate and the cells washed with 250 μl of 50 mM Tris Buffer (4° C.). The plates were left to dry for 1 hour. The cells were lysed using 0.25 M NaOH solution then placed on a shake table and vigorously shaken for 10 minutes. After cell lysis, 100 μl of Microscint 20 (PerkinElmer; #87-051101) was added to the plates and the plates were sealed with film tape and replaced on the shake table for a minimum of 10 minutes. The plates were counted in a TopCount counter (PerkinElmer).
% inhibition=[1−((mean cpm test compound wells−mean cpm non-specific wells)/(mean cpm control wells−mean cpm non-specific wells))]×100
For IC50 determination, raw cpm values were generated in a data file from the TopCount counter. The data was organized using the Microsoft Excel and transferred into PRIZM graphing and statistical program, which calculated the estimated IC50 value. Calculation of IC50 values was made using non-linear regression analysis with a sigmoidal dose response with variable slope. The statistical program used wells containing ^3H norepinephrine only as the maximal NE reuptake determinant and wells containing ^3H norepinephrine plus 20 μM desipramine (AHR-9543) as the minimal NE reuptake determinant (non-specific determinant). Estimation of the IC50 value was completed on a log scale and the line was fit between the maximal and minimal NE reuptake values.

T1 sequence (P23975 whole entry): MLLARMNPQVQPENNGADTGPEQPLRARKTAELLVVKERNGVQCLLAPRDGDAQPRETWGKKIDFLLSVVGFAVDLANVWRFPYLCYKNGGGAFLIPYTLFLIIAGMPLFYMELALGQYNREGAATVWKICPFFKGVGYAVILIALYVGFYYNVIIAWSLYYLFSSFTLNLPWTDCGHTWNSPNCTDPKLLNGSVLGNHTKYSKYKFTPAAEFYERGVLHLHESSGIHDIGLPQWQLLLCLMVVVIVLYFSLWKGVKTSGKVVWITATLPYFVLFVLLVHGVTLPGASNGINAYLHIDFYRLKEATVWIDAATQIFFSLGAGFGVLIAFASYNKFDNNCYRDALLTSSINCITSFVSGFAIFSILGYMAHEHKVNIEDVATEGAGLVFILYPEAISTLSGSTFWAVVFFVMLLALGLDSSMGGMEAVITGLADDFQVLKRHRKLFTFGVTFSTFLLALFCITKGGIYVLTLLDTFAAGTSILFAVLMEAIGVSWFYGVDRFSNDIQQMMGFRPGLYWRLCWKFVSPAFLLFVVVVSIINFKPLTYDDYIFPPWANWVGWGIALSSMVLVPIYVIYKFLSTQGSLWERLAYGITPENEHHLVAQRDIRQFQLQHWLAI

| SMILES | IC50 [µM] |
| --- | --- |
| CNCCC[C@H]1Cc2cc(F)ccc2N(c2ccccc2F)S1(=O)=O (single isomer, unassigned) [Example 109] | 0.093 |
| CNCCC[C@@H]1Cc2cc(F)ccc2N(c2ccccc2F)S1(=O)=O (single isomer, unassigned) [Example 110] | 0.011 |

Same assay, conditions: MDCK-Net6 cells, 6,000 cells/well, 16 nM 3H-norepinephrine; read-out: Procedure B hNET uptake IC50

| SMILES | IC50 [µM] |
| --- | --- |
| CNCCCC1Cc2ccccc2N(c2ccc(F)cc2F)S1(=O)=O (racemic) [Example 99, 3-[1-(2,4-difluorophenyl)-2,2-dioxido-3,4-dihydro-1H-2,1-benzothiazin-3-yl]-N-methylpropan-1-amine] | 0.062 |
| CNCCC[C@H]1Cc2ccccc2N(c2ccccc2)S1(=O)=O (single isomer, unassigned) [Example 10] | 0.096 |
| CNCCC[C@@H]1Cc2ccccc2N(c2ccccc2)S1(=O)=O (single isomer, unassigned) [Example 11] | 0.0179 |
| CNCCC[C@H]1Oc2ccccc2N(c2ccccc2)S1(=O)=O (single isomer, unassigned) [Example 13] | 0.0387 |
| CNCCC[C@@H]1Oc2ccccc2N(c2ccccc2)S1(=O)=O (single isomer, unassigned) [Example 14] | 0.0239 |
| CNCCC[C@H]1Oc2cc3ccccc3cc2N(c2ccccc2)S1(=O)=O (single isomer, unassigned) [Example 71, Hydrochloride] | 0.0694 |
| CNCCC[C@@H]1Oc2cc3ccccc3cc2N(c2ccccc2)S1(=O)=O (single isomer, unassigned) [Example 72, Hydrochloride] | 0.115 |
| CNCCC[C@H]1Cc2ccccc2N(c2ccccc2F)S1(=O)=O (single isomer, unassigned) [Example 74, Hydrochloride] | 0.0585 |
| CNCCC[C@@H]1Cc2ccccc2N(c2ccccc2F)S1(=O)=O (single isomer, unassigned) [Example 75] | 0.0037 |
| CNCCC[C@H]1Cc2ccccc2N(c2ccccc2F)S1(=O)=O (single isomer, unassigned) [Example 90] | 0.059 |
| CNCCC[C@@H]1Cc2ccccc2N(c2ccccc2F)S1(=O)=O (single isomer, unassigned) [Example 91] | 0.004 |
| CNCCC[C@@H]1Oc2ccccc2N(c2ccccc2F)S1(=O)=O (single isomer, unassigned) [Example 94] | 0.022 |
| CNC[C@@H](O)C[C@H]1Oc2ccccc2N(c2ccccc2)S1(=O)=O (single isomer, unassigned) [Example 98] | 0.077 |
| CNCCC[C@H]1Cc2ccccc2N(c2ccc(F)cc2F)S1(=O)=O (single isomer, unassigned) [Example 100] | 0.343 |
| CNCCC[C@@H]1Cc2ccccc2N(c2ccc(F)cc2F)S1(=O)=O (single isomer, unassigned) [Example 101] | 0.049 |

The remaining lines, values ahead:

| IC50 [µM] | SMILES |
| --- | --- |
| 0.092 | CNCCCC1Cc2cc(F)ccc2N(c2ccc(F)cc2F)S1(=O)=O (racemic) [Example 111, 3-[1-(2,4-difluorophenyl)-6-fluoro-2,2-dioxido-3,4-dihydro-1H-2,1-benzothiazin-3-yl]-N-methylpropan-1-amine] |
| 0.01 | CNCCCC1Cc2ccccc2N(c2c(F)cccc2F)S1(=O)=O (racemic) [Example 120, 3-[1-(2,6-difluorophenyl)-2,2-dioxido-3,4-dihydro-1H-2,1-benzothiazin-3-yl]-N-methylpropan-1-amine] |
| 0.256 | CNCCCC1Cc2ccccc2N(c2cccnc2)S1(=O)=O (racemic) [Example 123, 3-(2,2-dioxido-1-pyridin-3-yl-3,4-dihydro-1H-2,1-benzothiazin-3-yl)-N-methylpropan-1-amine] |
| 0.098 | CNCCCC1Cc2ccccc2N(c2ccccn2)S1(=O)=O (racemic) [Example 126, 3-(2,2-dioxido-1-pyridin-2-yl-3,4-dihydro-1H-2,1-benzothiazin-3-yl)-N-methylpropan-1-amine] |
| 0.074 | CNCCCC1Cc2cc(F)ccc2N(c2cccc(F)c2F)S1(=O)=O (racemic) [Example 145, 3-[1-(2,3-difluorophenyl)-6-fluoro-2,2-dioxido-3,4-dihydro-1H-2,1-benzothiazin-3-yl]-N-methylpropan-1-amine] |
| 0.051 | CNCCCC1Cc2cc(F)ccc2N(c2ccc(C)cc2F)S1(=O)=O (racemic) [Example 148, 3-[6-fluoro-1-(2-fluoro-4-methylphenyl)-2,2-dioxido-3,4-dihydro-1H-2,1-benzothiazin-3-yl]-N-methylpropan-1-amine] |
| 0.031 | CNCCCC1Cc2cc(F)ccc2N(c2cc(F)ccc2F)S1(=O)=O (racemic) [Example 151, 3-[1-(2,5-difluorophenyl)-6-fluoro-2,2-dioxido-3,4-dihydro-1H-2,1-benzothiazin-3-yl]-N-methylpropan-1-amine] |
| 0.031 | CNCCCC1Cc2cc(F)ccc2N(c2c(F)cccc2F)S1(=O)=O (racemic) [Example 154, 3-[1-(2,6-difluorophenyl)-6-fluoro-2,2-dioxido-3,4-dihydro-1H-2,1-benzothiazin-3-yl]-N-methylpropan-1-amine] |
| 0.128 | CNCCCC1Cc2cc(F)ccc2N(c2ccccc2Cl)S1(=O)=O (racemic) [Example 157, 3-[1-(2-chlorophenyl)-6-fluoro-2,2-dioxido-3,4-dihydro-1H-2,1-benzothiazin-3-yl]-N-methylpropan-1-amine] |
| 0.142 | CNCCCC1Cc2cc(F)ccc2N(c2ccccc2C)S1(=O)=O (racemic) [Example 160, 3-[6-fluoro-1-(2-methylphenyl)-2,2-dioxido-3,4-dihydro-1H-2,1-benzothiazin-3-yl]-N-methylpropan-1-amine] |
| 0.189 | CNCCCC1Cc2cc(F)ccc2N(c2ccccc2C#N)S1(=O)=O (racemic) [Example 163, 2-{6-fluoro-3-[3-(methylamino)propyl]-2,2-dioxido-3,4-dihydro-1H-2,1-benzothiazin-1-yl}benzonitrile] |
| 0.304 | CNCCCC1Cc2cc(F)ccc2N(c2ccccc2OC)S1(=O)=O (racemic) [Example 166, 3-[6-fluoro-1-(2-methoxyphenyl)-2,2-dioxido-3,4-dihydro-1H-2,1-benzothiazin-3-yl]-N-methylpropan-1-amine] |
| 0.096 | CNCCCC1Cc2cc(F)ccc2N(c2ccc(F)cc2C)S1(=O)=O (racemic) [Example 169, 3-[6-fluoro-1-(4-fluoro-2-methylphenyl)-2,2-dioxido-3,4-dihydro-1H-2,1-benzothiazin-3-yl]-N-methylpropan-1-amine] |
| 1.27 | NCC[C@H]1Oc2ccccc2N(c2ccccc2)S1(=O)=O (single isomer, unassigned) [Example 102] |
| 3.32 | NCC[C@@H]1Oc2ccccc2N(c2ccccc2)S1(=O)=O (single isomer, unassigned) [Example 103] |
| 0.302 | CNCC[C@H]1Oc2ccccc2N(c2ccccc2)S1(=O)=O (single isomer, unassigned) [Example 104] |
| 1.22 | CNCC[C@@H]1Oc2ccccc2N(c2ccccc2)S1(=O)=O (single isomer, unassigned) [Example 105] |
| 0.097 | CNCCC[C@H]1Oc2cc(F)ccc2N(c2ccccc2)S1(=O)=O (single isomer, unassigned) [Example 106] |
| 0.074 | CNCCC[C@@H]1Oc2cc(F)ccc2N(c2ccccc2)S1(=O)=O (single isomer, unassigned) [Example 107] |
| 0.1 | CNCCC[C@H]1Cc2cc(F)ccc2N(c2ccc(F)cc2F)S1(=O)=O (single isomer, unassigned) [Example 112] |
| 0.034 | CNCCC[C@@H]1Cc2cc(F)ccc2N(c2ccc(F)cc2F)S1(=O)=O (single isomer, unassigned) [Example 113] |
| 0.101 | CNCC[C@H](O)[C@@H]1Cc2ccccc2N(c2ccccc2)S1(=O)=O (single isomer, unassigned) [Example 114] |

Same assay, conditions: MDCK-Net6 cells, 6,000 cells/well; Conc 6000 nM (6 μM); read-out: Procedure B hNET uptake (% inhibition)

| inhibition at 6 µM [%] | SMILES |
| --- | --- |
| 35 | CNCCCC1Cc2ccccc2N(c2ccncc2)S1(=O)=O (racemic) [Example 133, 3-(2,2-dioxido-1-pyridin-4-yl-3,4-dihydro-1H-2,1-benzothiazin-3-yl)-N-methylpropan-1-amine] |
